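Step 1: Grow cells in 96-well plates. Step 2: Expose to compound for 48 hours at 5 concentrations. Step 3: Interpolate endpoints linearly; if unreached, use highest concentration. TGI denotes the concentration required for complete inhibition of growth.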
Tests used:
Experiment in all cases: NCI-60 cell line screen, 48 h
UACC-257 melanoma = tested on: UACC-257 melanoma
MDA-MB-435 = tested on: MDA-MB-435
HCC-2998 colon = tested on: HCC-2998 colon
A549 NSCLC = tested on: A549 NSCLC
HOP-62 NSCLC = tested on: HOP-62 NSCLC
HOP-92 NSCLC = tested on: HOP-92 NSCLC
CAKI-1 renal = tested on: CAKI-1 renal
RPMI-8226 leukemia = tested on: RPMI-8226 leukemia
MOLT-4 leukemia = tested on: MOLT-4 leukemia
DU-145 prostate = tested on: DU-145 prostate
T-47D breast = tested on: T-47D breast
HCT-116 colon = tested on: HCT-116 colon
U251 CNS = tested on: U251 CNS
NCI-H460 lung = tested on: NCI-H460 lung
SNB-19 CNS = tested on: SNB-19 CNS
TK-10 renal = tested on: TK-10 renal
OVCAR-5 ovarian = tested on: OVCAR-5 ovarian
SN12C renal = tested on: SN12C renal
OVCAR-4 ovarian = tested on: OVCAR-4 ovarian
OVCAR-8 ovarian = tested on: OVCAR-8 ovarian
M14 melanoma = tested on: M14 melanoma
HS 578T breast = tested on: HS 578T breast
HCT-15 colon = tested on: HCT-15 colon
K-562 leukemia = tested on: K-562 leukemia
SW-620 colon = tested on: SW-620 colon
MDA-MB-231 breast = tested on: MDA-MB-231 breast
UO-31 renal = tested on: UO-31 renal
LOX IMVI melanoma = tested on: LOX IMVI melanoma
IGROV1 ovarian = tested on: IGROV1 ovarian
CCRF-CEM leukemia = tested on: CCRF-CEM leukemia
OVCAR-3 ovarian = tested on: OVCAR-3 ovarian
HL-60(TB) leukemia = tested on: HL-60(TB) leukemia
MDA-N = tested on: MDA-N
HT29 colon = tested on: HT29 colon
ACHN renal = tested on: ACHN renal
SK-MEL-2 melanoma = tested on: SK-MEL-2 melanoma
NCI-H226 lung = tested on: NCI-H226 lung
SNB-75 CNS = tested on: SNB-75 CNS
NCI-H23 lung = tested on: NCI-H23 lung
PC-3 prostate = tested on: PC-3 prostate
SF-295 CNS = tested on: SF-295 CNS
NCI/ADR-RES ovarian = tested on: NCI/ADR-RES ovarian
SK-MEL-28 melanoma = tested on: SK-MEL-28 melanoma
NCI-H522 lung = tested on: NCI-H522 lung
SK-MEL-5 melanoma = tested on: SK-MEL-5 melanoma
SR leukemia = tested on: SR leukemia
COLO 205 colon = tested on: COLO 205 colon
SK-OV-3 ovarian = tested on: SK-OV-3 ovarian
KM12 colon = tested on: KM12 colon
BT-549 breast = tested on: BT-549 breast
MALME-3M melanoma = tested on: MALME-3M melanoma
786-0 renal = tested on: 786-0 renal
SF-268 CNS = tested on: SF-268 CNS
UACC-62 melanoma = tested on: UACC-62 melanoma
A498 renal = tested on: A498 renal
MCF7 breast = tested on: MCF7 breast
SF-539 CNS = tested on: SF-539 CNS
EKVX NSCLC = tested on: EKVX NSCLC
RXF 393 renal = tested on: RXF 393 renal

CCP(=O)(CC)C(Cl)(Cl)C(=O)NC
TGI (UACC-257 melanoma): > 100 µM
TGI (MDA-MB-435): > 100 µM
TGI (HCC-2998 colon): > 100 µM
TGI (A549 NSCLC): > 100 µM
TGI (HOP-62 NSCLC): > 100 µM
TGI (HOP-92 NSCLC): > 100 µM
TGI (CAKI-1 renal): > 100 µM
TGI (RPMI-8226 leukemia): > 100 µM
TGI (MOLT-4 leukemia): > 100 µM
TGI (DU-145 prostate): > 100 µM
TGI (T-47D breast): > 100 µM
TGI (HCT-116 colon): > 100 µM
TGI (U251 CNS): > 100 µM
TGI (NCI-H460 lung): > 100 µM
TGI (SNB-19 CNS): > 100 µM
TGI (TK-10 renal): > 100 µM
TGI (OVCAR-5 ovarian): > 100 µM
TGI (SN12C renal): > 100 µM
TGI (OVCAR-4 ovarian): > 100 µM
TGI (OVCAR-8 ovarian): > 100 µM
TGI (M14 melanoma): > 100 µM
TGI (HS 578T breast): > 100 µM
TGI (HCT-15 colon): > 100 µM
TGI (K-562 leukemia): > 100 µM
TGI (SW-620 colon): > 100 µM
TGI (MDA-MB-231 breast): > 100 µM
TGI (UO-31 renal): > 100 µM
TGI (LOX IMVI melanoma): > 100 µM
TGI (IGROV1 ovarian): > 100 µM
TGI (CCRF-CEM leukemia): > 100 µM
TGI (OVCAR-3 ovarian): > 100 µM
TGI (HL-60(TB) leukemia): > 100 µM
TGI (MDA-N): > 100 µM
TGI (HT29 colon): > 100 µM
TGI (ACHN renal): > 100 µM
TGI (SK-MEL-2 melanoma): > 100 µM
TGI (NCI-H226 lung): > 100 µM
TGI (SNB-75 CNS): > 100 µM
TGI (NCI-H23 lung): > 100 µM
TGI (PC-3 prostate): > 100 µM
TGI (SF-295 CNS): > 100 µM
TGI (NCI/ADR-RES ovarian): > 100 µM
TGI (SK-MEL-28 melanoma): > 100 µM
TGI (NCI-H522 lung): > 100 µM
TGI (SK-MEL-5 melanoma): > 100 µM
TGI (SR leukemia): > 100 µM
TGI (COLO 205 colon): > 100 µM
TGI (SK-OV-3 ovarian): > 100 µM

COc1cccc(-n2nnc3c(N)nc(N)nc32)c1
TGI (UACC-257 melanoma): > 100 µM
TGI (MDA-MB-435): > 100 µM
TGI (A549 NSCLC): > 100 µM
TGI (HOP-62 NSCLC): > 100 µM
TGI (HOP-92 NSCLC): > 100 µM
TGI (CAKI-1 renal): > 100 µM
TGI (KM12 colon): > 100 µM
TGI (BT-549 breast): > 100 µM
TGI (RPMI-8226 leukemia): > 100 µM
TGI (MOLT-4 leukemia): > 100 µM
TGI (DU-145 prostate): > 100 µM
TGI (T-47D breast): > 100 µM
TGI (MALME-3M melanoma): > 100 µM
TGI (HCT-116 colon): > 100 µM
TGI (U251 CNS): > 100 µM
TGI (NCI-H460 lung): > 100 µM
TGI (786-0 renal): > 100 µM
TGI (SNB-19 CNS): > 100 µM
TGI (TK-10 renal): > 100 µM
TGI (OVCAR-5 ovarian): > 100 µM
TGI (SN12C renal): > 100 µM
TGI (SF-268 CNS): > 100 µM
TGI (OVCAR-4 ovarian): > 100 µM
TGI (UACC-62 melanoma): > 100 µM
TGI (OVCAR-8 ovarian): > 100 µM
TGI (M14 melanoma): > 100 µM
TGI (HCT-15 colon): > 100 µM
TGI (K-562 leukemia): > 100 µM
TGI (SW-620 colon): > 100 µM
TGI (MDA-MB-231 breast): > 100 µM
TGI (LOX IMVI melanoma): > 100 µM
TGI (IGROV1 ovarian): > 100 µM
TGI (CCRF-CEM leukemia): > 100 µM
TGI (OVCAR-3 ovarian): > 100 µM
TGI (HL-60(TB) leukemia): > 100 µM
TGI (MDA-N): > 100 µM
TGI (HT29 colon): > 100 µM
TGI (A498 renal): > 100 µM
TGI (MCF7 breast): > 100 µM
TGI (ACHN renal): > 100 µM
TGI (SK-MEL-2 melanoma): > 100 µM
TGI (NCI-H226 lung): > 100 µM
TGI (SF-539 CNS): > 100 µM
TGI (SNB-75 CNS): > 100 µM
TGI (NCI-H23 lung): 76.3 µM
TGI (PC-3 prostate): > 100 µM
TGI (SF-295 CNS): > 100 µM
TGI (NCI/ADR-RES ovarian): > 100 µM
TGI (EKVX NSCLC): > 100 µM
TGI (SK-MEL-28 melanoma): > 100 µM
TGI (NCI-H522 lung): > 100 µM
TGI (SK-MEL-5 melanoma): > 100 µM
TGI (COLO 205 colon): > 100 µM
TGI (SK-OV-3 ovarian): > 100 µM

CCOC(=O)c1c(NC(=S)NCc2ccccc2)sc2c1CCN(C)C2
TGI (UACC-257 melanoma): > 100 µM
TGI (A549 NSCLC): > 100 µM
TGI (HOP-62 NSCLC): > 100 µM
TGI (CAKI-1 renal): > 100 µM
TGI (KM12 colon): > 100 µM
TGI (BT-549 breast): > 100 µM
TGI (RPMI-8226 leukemia): > 100 µM
TGI (MOLT-4 leukemia): 51 µM
TGI (DU-145 prostate): > 100 µM
TGI (T-47D breast): > 100 µM
TGI (HCT-116 colon): > 100 µM
TGI (NCI-H460 lung): > 100 µM
TGI (SNB-19 CNS): > 100 µM
TGI (TK-10 renal): > 100 µM
TGI (OVCAR-5 ovarian): > 100 µM
TGI (SN12C renal): > 100 µM
TGI (SF-268 CNS): > 100 µM
TGI (UACC-62 melanoma): > 100 µM
TGI (OVCAR-8 ovarian): > 100 µM
TGI (M14 melanoma): > 100 µM
TGI (HS 578T breast): > 100 µM
TGI (HCT-15 colon): > 100 µM
TGI (K-562 leukemia): 46.1 µM
TGI (MDA-MB-231 breast): > 100 µM
TGI (UO-31 renal): > 100 µM
TGI (IGROV1 ovarian): > 100 µM
TGI (CCRF-CEM leukemia): 40.3 µM
TGI (OVCAR-3 ovarian): > 100 µM
TGI (HL-60(TB) leukemia): 36.2 µM
TGI (MDA-N): > 100 µM
TGI (HT29 colon): > 100 µM
TGI (A498 renal): > 100 µM
TGI (MCF7 breast): > 100 µM
TGI (ACHN renal): > 100 µM
TGI (SK-MEL-2 melanoma): > 100 µM
TGI (NCI-H226 lung): > 100 µM
TGI (SF-539 CNS): > 100 µM
TGI (NCI-H23 lung): > 100 µM
TGI (PC-3 prostate): > 100 µM
TGI (SF-295 CNS): > 100 µM
TGI (NCI/ADR-RES ovarian): > 100 µM
TGI (EKVX NSCLC): > 100 µM
TGI (SK-MEL-5 melanoma): > 100 µM
TGI (COLO 205 colon): > 100 µM

CCCCc1cc2c(cc1O)CCC1C2CC[C@@]2(C)C1CC[C@@H]2O (stereo partly drawn)
TGI (UACC-257 melanoma): 35.9 µM
TGI (MDA-MB-435): 36.5 µM
TGI (HCC-2998 colon): 50.9 µM
TGI (A549 NSCLC): 29.3 µM
TGI (HOP-62 NSCLC): 57.3 µM
TGI (HOP-92 NSCLC): 39.3 µM
TGI (CAKI-1 renal): 52.6 µM
TGI (KM12 colon): 32.4 µM
TGI (RPMI-8226 leukemia): 39.1 µM
TGI (MOLT-4 leukemia): 28.2 µM
TGI (DU-145 prostate): 35.3 µM
TGI (T-47D breast): 35.8 µM
TGI (MALME-3M melanoma): 39.2 µM
TGI (HCT-116 colon): 36.6 µM
TGI (U251 CNS): 64.7 µM
TGI (NCI-H460 lung): 63.5 µM
TGI (786-0 renal): 73.1 µM
TGI (SNB-19 CNS): > 100 µM
TGI (TK-10 renal): 33.7 µM
TGI (OVCAR-5 ovarian): 36.5 µM
TGI (SN12C renal): 39.3 µM
TGI (SF-268 CNS): 89 µM
TGI (OVCAR-4 ovarian): 37.3 µM
TGI (UACC-62 melanoma): 29.5 µM
TGI (OVCAR-8 ovarian): 43.4 µM
TGI (M14 melanoma): 41.7 µM
TGI (HS 578T breast): 43.8 µM
TGI (HCT-15 colon): > 100 µM
TGI (K-562 leukemia): 43.6 µM
TGI (RXF 393 renal): 22.2 µM
TGI (SW-620 colon): 59.2 µM
TGI (MDA-MB-231 breast): 62.1 µM
TGI (UO-31 renal): 38 µM
TGI (LOX IMVI melanoma): 39.3 µM
TGI (IGROV1 ovarian): 49.9 µM
TGI (CCRF-CEM leukemia): 56.7 µM
TGI (OVCAR-3 ovarian): 29.7 µM
TGI (MDA-N): 51.2 µM
TGI (HT29 colon): 50.3 µM
TGI (A498 renal): 57.2 µM
TGI (MCF7 breast): 30.4 µM
TGI (ACHN renal): 29.7 µM
TGI (SK-MEL-2 melanoma): 38.1 µM
TGI (NCI-H226 lung): 40.6 µM
TGI (SF-539 CNS): 59.3 µM
TGI (SNB-75 CNS): 31.7 µM
TGI (NCI-H23 lung): 41.3 µM
TGI (PC-3 prostate): 35.3 µM
TGI (SF-295 CNS): 35.8 µM
TGI (NCI/ADR-RES ovarian): 38.5 µM
TGI (EKVX NSCLC): 33.6 µM
TGI (SK-MEL-28 melanoma): 45.1 µM
TGI (NCI-H522 lung): 43.7 µM
TGI (SK-MEL-5 melanoma): 39.2 µM
TGI (SR leukemia): 51.3 µM
TGI (COLO 205 colon): 49.5 µM
TGI (SK-OV-3 ovarian): 37.1 µM

— PubChem BioAssay (NCI)
